According to patent publication US9670512B2, “Methods and compositions for producing fatty alcohols or fatty aldehydes” (REG Life Sciences, LLC, priority 2008, dated 2017):

What was measured:
[1] = target: T1, PCC7942_orf1594 protein (acyl-ACP reductase) (Synechococcus elongatus, UniProt Q54765); test: acyl-ACP or acyl-CoA reductase enzyme assay with purified PCC7942_orf1594 protein; type: biochemical, Synechococcus elongatus PCC7942; details: for reduction of acyl substrate to fatty aldehyde by PCC7942_orf1594: GC/MS detection of octadecanal/octadecenal, NADPH and divalent cation required
T1 construct: His-tag (C); made in house; host or cells: E. coli BL21 (DE3)
T1 sequence (Q54765 1-341): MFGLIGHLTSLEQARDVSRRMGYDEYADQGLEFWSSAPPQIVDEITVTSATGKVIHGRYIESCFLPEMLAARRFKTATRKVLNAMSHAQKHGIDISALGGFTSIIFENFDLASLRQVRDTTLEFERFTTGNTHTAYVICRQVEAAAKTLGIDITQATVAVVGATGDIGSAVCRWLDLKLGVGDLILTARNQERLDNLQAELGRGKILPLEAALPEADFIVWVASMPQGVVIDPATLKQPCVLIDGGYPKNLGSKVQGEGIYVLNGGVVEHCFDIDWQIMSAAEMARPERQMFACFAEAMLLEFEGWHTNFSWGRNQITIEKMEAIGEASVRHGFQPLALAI
Description: The genomic DNA encoding S. elongatus […] orf1594 (SEQ ID NO:65) was cloned into the NcoI and XhoI sites of vector pET-28b under the control of the T7 promoter. The resulting PCC7942_orf1594 protein contained a C-terminal His-tag. An E. coli BL21 strain (DE3) (Invitrogen) was transformed with the plasmid and PCC7942_orf1594 protein was expressed and purified as described in Example 22. The protein solution was stored in the following buffer: 50 mM sodium phosphate, pH 7.5, 100 mM NaCl, 1 mM THP, 10% glycerol. Protein concentration was determined using the Bradford assay (Biorad). 2 mg/mL of PCC7942_orf1594 protein was obtained.
To test PCC7942_orf1594 protein for acyl-ACP or acyl-CoA reductase activity, the following enzyme assays were set-up. 100 μL reactions were set-up in 50 mM Tris-HCl buffer at pH 7.5 with the following components at their respective final concentrations: 10 μM of purified PCC7942_orf1594 protein, 0.01-1 mM acyl-CoA or acyl-ACP, 2 mM MgCl2, 0.2-2 mM NADPH. The reactions were incubated for 1 h at 37° C. and where stopped by adding 100 μL ethyl acetate (containing 5 mg/l 1-octadecene as internal standard). Samples were vortexed for 15 min and centrifuged at max speed for 3 min for phase separation. 80 μL of the top layer were transferred into GC glass vials and analyzed by GC/MS as described in Example 26. The amount of aldehyde formed was calculated based on the internal standard.

[2] = target: T2, Npun02004178 protein (fatty aldehyde decarbonylase) (Nostoc punctiforme, UniProt B2J1M1); test: in-vitro fatty aldehyde decarbonylase assay with purified Npun02004178 protein; type: biochemical, Nostoc punctiforme PCC73102; details: 200 μM octadecanal, 30 μM Npun02004178, spinach ferredoxin, ferredoxin reductase and NADPH; 37° C., 2 h
T2 construct: His-tag (N); made in house; host or cells: E. coli BL21 (DE3)
T2 sequence (B2J1M1 1-232): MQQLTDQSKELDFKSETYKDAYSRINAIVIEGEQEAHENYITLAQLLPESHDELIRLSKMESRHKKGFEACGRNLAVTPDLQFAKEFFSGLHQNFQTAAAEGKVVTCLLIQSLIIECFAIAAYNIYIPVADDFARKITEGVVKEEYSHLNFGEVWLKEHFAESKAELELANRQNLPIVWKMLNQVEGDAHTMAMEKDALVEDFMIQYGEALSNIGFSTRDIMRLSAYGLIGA
Description: The genomic DNA encoding N. punctiforme PCC73102 Npun02004178 (SEQ ID NO:5) was cloned into the NdeI and XhoI sites of vector pET-15b under the control of the T7 promoter. The resulting Npun02004178 protein contained an N-terminal His-tag. An E. coli BL21 strain (DE3) (Invitrogen) was transformed with the plasmid by routine chemical transformation techniques. Protein expression was carried out by first inoculating a colony of the E. coli strain in 5 mL of LB media supplemented with 100 mg/L of carbenicillin and shaken overnight at 37° C. to produce a starter culture. This starter cultures was used to inoculate 0.5 L of LB media supplemented with 100 mg/L of carbenecillin. […] Protein concentration was determined using the Bradford assay (Biorad). […]
To test Npun02004178 protein for decarbonylation activity, the following enzyme assays were set-up. […] Samples were analyzed by GC/MS using the following parameters: run time: 13.13 min; column: HP-5-MS Part No. 19091S-433E (length of 30 meters; I.D.: 0.25 mm narrowbore; film: 0.25 iM); inject: 1 ii Agilent 6850 inlet; inlet: 300 C splitless; carrier gas: helium; flow: 1.3 mL/min; oven temp: 75° C. hold 5 min, 320 at 40° C./min, 320 hold 2 min; det: Agilent 5975B VL MSD; det. temp: 330° C.; scan: 50-550 M/Z. Heptadecane from Sigma was used as an authentic reference for determining compound retention time and fragmentation pattern. […]

| Compound | reduction of acyl substrate to fatty aldehyde by PCC7942_orf1594 [1] | also measured |
| --- | --- | --- |
| NC(=O)C1=CN([C@@H]2O[C@H](COP(=O)(O)OP(=O)(O)OC[C@H]3O[C@@H](n4cnc5c(N)ncnc54)[C@H](O)[C@@H]3O)[C@@H](O)[C@H]2O)C=CC1 [NADH, reference compound] | – | support of reductase activity as electron donor ([1]; octadecanoyl-CoA as substrate, Mg2+): did not support reductase activity |
| octadecenoyl-CoA | also able to reduce | – |
| NC(=O)C1=CN([C@@H]2O[C@H](COP(=O)(O)OP(=O)(O)OC[C@H]3O[C@@H](n4cnc5c(N)ncnc54)[C@H](OP(=O)(O)O)[C@@H]3O)[C@@H](O)[C@H]2O)C=CC1 [NADPH, reference compound] | – | Km ([1]; in the presence of 0.5 mM octadecanoyl-CoA, read-out: Km value for NADPH): 400 ± 80 µM |
| CCCCCCCCCCCCCCCCCC(=O)SCCNC(=O)CCNC(=O)[C@H](O)C(C)(C)COP(=O)(O)OP(=O)(O)OC[C@H]1O[C@@H](n2cnc3c(N)ncnc32)[C@H](O)[C@@H]1OP(=O)(O)O [octadecanoyl-CoA] | able to reduce octadecanoyl-CoA to octadecanal | – |
| CCCCCCCCCCCCCCCCCC=O [octadecanal] | – | in-vitro decarbonylation to heptadecane [2]: in-vitro conversion of octadecanal to heptadecane was observed |
| octadecenoyl-ACP | also able to reduce | – |
